Assays:
Assay type in all cases: in vivo
[1] = Body weight of rats after spinal cord injury (SCI) surgery; settings: 1 mg/kg subcutaneous daily, female SD rats, FIG. 2
Procedure: (§1) Female SD rats (250-270 g) were randomly grouped after being weighed. After the dorsal T10 segment lamina of the rats was removed, spinal cord contusion was performed on rats in each spinal cord injury (SCI) surgery group, while for rats in the sham operation (sham) group, only the T10 segment lamina was removed without contusion. Rats with a BBB locomotor score > 1 on day 1 after spinal cord injury surgery were excluded, and the remaining rats were randomly grouped and subcutaneously injected daily with: equal volume of physiological saline (vehicle control), PW5 (1 mg/kg), and PW337 (1, 2, 4 mg/kg); rats in the sham operation group were not injected. The body weight of the rats was measured weekly after spinal cord injury surgery, and BBB scoring and open field activity tests were performed.

[2] = tested on: rats with chronic spinal cord injury; assay: BBB locomotor scoring in rats with chronic spinal cord injury; settings: 2 mg/kg subcutaneous daily; days 1-14 after surgery (acute and subacute phase), FIG. 4
Procedure: as §1, with “(2” for “(1”, “(2” for “(1, 2, 4”, “BBB scoring” for “The body weight of the rats”, “performed” for “measured”, “surgery.” for “surgery, and BBB scoring and open field activity tests were performed.”

[3] = Determination of the half-life of polypeptides in rats (plasma LC-MS/MS); set-up: AUClast (0-120 min): unit not given here; settings: male SD rats, intravenous 4 mg/kg
Procedure: Plasma sample collection method: 2 male SD rats (280-300 g) were intravenously injected with PW5, PW6, PW182, and PW337 respectively, the pure peptide dose was 4 mg/kg, and the dosing volume was 2 mL/kg. At 0.5 min, 2 min, 5 min, 10 min, 15 min, 30 min, 60 min, and 120 min after intravenous injection of the drug via the tail vein, blood (400 µL/time) was collected through an indwelling jugular vein catheter into anticoagulant tubes containing EDTA-K2, and 100x protease inhibitor (1:50, v:v; Roche, 11873580001) was added. Whole blood samples were placed on ice and centrifuged (3200 g, 4°C, 10 min) within 1 hour after blood collection. Plasma was taken into a pre-cooled centrifuge tube, protease inhibitor (1:50, v:v) was added again, mixed homogeneously, and stored at -80°C.
Plasma sample processing method: Plasma samples were pipetted into a 96-well plate (50 µL/well), pure methanol (300 µL/well) was added, and mixed by vortexing (1500 rpm, 10 min). Centrifuged (4800 g, 4°C, 10 min), the supernatant was taken into a new 96-well plate (100 µL/well), a 20% aqueous methanol solution containing 0.2% formic acid (100 µL/well) was added, and mixed by vortexing (1500 rpm, 3 min). 10.0 µL was injected for LC-MS/MS analysis to obtain the drug concentration in the samples. Instrument model: (Waters TQ-XS) Chromatographic column: SHIMADZU Shim-Pack Scepter Claris C4-300 (2.1×50 mm, 1.9 µm) Detection results: Table 3. Half-life, blood drug concentration, and AUC data of the conjugates

Q: Which “body weight recovery compared with rats in the spinal cord injury (SCI) group” value [1] does the source give for `CC[C@H](C)[C@H](NC(=O)[C@H](CO)NC(=O)[C@H](CCC(=O)O)NC(=O)[C@H](Cc1ccc(O)cc1)NC(=O)[C@H](CCC(=O)O)NC(=O)[C@H](CCC(N)=O)NC(=O)[C@H](CO)NC(=O)[C@H](CC(C)C)NC(=O)[C@H](CCCCN)NC(=O)[C@H](CC(C)C)NC(=O)[C@H](CO)NC(=O)[C@H](CC(=O)O)NC(=O)[C@H](CC(N)=O)NC(=O)[C@H](C)NC(=O)[C@H](CCCCN)NC(=O)[C@H](CC(C)C)NC(=O)[C@H](CCCNC(=N)N)NC(=O)[C@H](CCC(=O)O)NC(=O)[C@H](CCSC)NC(=O)[C@H](Cc1c[nH]cn1)NC(=O)[C@H](CCC(=O)O)NC(=O)[C@H](C)NC(=O)[C@H](CCSC)NC(=O)[C@H](CC(=O)O)NC(=O)[C@H](CS)NC(=O)[C@H](CCCNC(=N)N)NC(=O)[C@H](CCCNC(=N)N)NC(=O)[C@H](CCCNC(=N)N)NC(=O)[C@H](CCC(N)=O)NC(=O)[C@H](CCCNC(=N)N)NC(=O)[C@H](CCCNC(=N)N)NC(=O)[C@H](CCCCN)NC(=O)[C@H](CCCCN)NC(=O)[C@H](CCCNC(=N)N)NC(=O)CN)C(N)=O` [PW-5, reference compound] here?
A: significantly accelerated on days 27-57 after surgery

Q: And the “BBB scores, differences among SCI, PW5 and PW337 groups” value [2]?
A: no significant differences

Q: And the “AUClast (0-120 min)” value ([3]; 0-120 min)?
A: 928

Q: What about the “30 min blood drug concentration” value ([3]; 30 min after injection) of the same molecule?
A: 0 ng/mL

Q: What about the half-life ([3]; rat, plasma) of the same molecule?
A: 4.3 min

Reference: patent publication EP4793292A1, “POLYPEPTIDE DERIVATIVE, PHARMACEUTICAL COMPOSITION THEREOF AND USE THEREOF” (Biocells (Beijing) Biotech Co., Ltd., priority 2023, dated 2025)
